Where a name gives a salt, the structure may show the parent alone. Read-outs that look alike come from different tables or passages of the source.
Key:
human FGFR1 = biological target: T1, human FGFR1 (Homo sapiens, UniProt P11362); test: 33P isotope-labeled kinase activity test (Reaction Biology Corp), wild-type FGFR1; format: biochemical; details: 33P-ATP 5 μM, substrate pEY + Mn, 120 minutes at room temperature
T1 construct: purchased Invitrogen PV3146
Experimental: (§1) The IC50 value is determined using ^33P isotope-labeled kinase activity test (Reaction Biology Corp) to evaluate the inhibitory ability of the compounds to be tested on human FGFR1 and FGFR4.
(§2) Buffer conditions: 20 mM 4-(2-hydroxyethyl)-1-piperazineethanesulfonic acid (Hepes) (pH 7.5), 10 mM MgCl2, 1 mM ethylene glycol-bis-(2-aminoethyl ether)tetraacetic acid (EGTA), 0.02% polyoxyethylene lauryl ether (Brij35), 0.02 mg/ml bovine serum albumin (BSA), 0.1 mM sodium vanadate (Na3VO4), 2 mM dithiothreitol (DTT), and 1% DMSO.
Test steps: At room temperature, the compounds to be tested are dissolved in DMSO to prepare a 10 mM solution for use. The substrate is dissolved in the newly prepared buffer, and the kinase to be tested is added and mixed well. The DMSO solution in which the compounds to be tested are dissolved is added to the above-mentioned homogeneous reaction solution using acoustic technology (Echo 550). […] After incubating for 15 minutes, ^33P-ATP (activity: 0.01 μCi/μl, with corresponding concentration being listed in table 1) is added to start the reaction. The supplier article number, batch number, and the concentration information in the reaction solution of FGFR1, FGFR4 and substrates thereof are listed in table 1. […] The kinase activity data is expressed by comparing the kinase activity of the groups containing the compounds to be tested with that of the blank group (containing only DMSO). The IC50 value is obtained by curve fitting using Prism4 software (GraphPad), and the experimental results are shown in table 2.

FGFR2 = biological target: T2, FGFR2 (Homo sapiens, UniProt P21802); test: 33P isotope-labeled kinase activity test (Reaction Biology Corp), wild-type FGFR2; format: biochemical
T2 construct: purchased Invitrogen PV3368

FGFR3 = biological target: T3, FGFR3 (Homo sapiens, UniProt P22607); test: 33P isotope-labeled kinase activity test (Reaction Biology Corp), wild-type FGFR3; format: biochemical
T3 construct: purchased Invitrogen PV3145

human FGFR4 = biological target: T4, human FGFR4 (Homo sapiens, UniProt P22455); test: 33P isotope-labeled kinase activity test (Reaction Biology Corp), wild-type FGFR4; format: biochemical; details: 33P-ATP 2.5 μM, substrate pEY + Mn, 120 minutes at room temperature
T4 construct: purchased Invitrogen P3054
Experimental: as §1, §2
Test steps: At room temperature, the compounds to be tested are dissolved in DMSO to prepare a 10 mM solution for use. The substrate is dissolved in the newly prepared buffer, and the kinase to be tested is added and mixed well. The DMSO solution in which the compounds to be tested are dissolved is added to the above-mentioned homogeneous reaction solution using acoustic technology (Echo 550). […] After incubating for 15 minutes, ^33P-ATP (activity: 0.01 μCi/μl, with corresponding concentration being listed in table 1) is added to start the reaction. The supplier article number, batch number, and the concentration information in the reaction solution of FGFR1, FGFR4 and substrates thereof are listed in table 1. After the reaction is carried out at room temperature for 120 minutes, the reaction solution is spotted on P81 ion exchange filter paper (Whatman #3698-915). After the filter paper is repeatedly washed with 0.75% phosphoric acid solution, the radioactivity of the phosphorylated substrate remaining on the filter paper is measured. The kinase activity data is expressed by comparing the kinase activity of the groups containing the compounds to be tested with that of the blank group (containing only DMSO). The IC50 value is obtained by curve fitting using Prism4 software (GraphPad), and the experimental results are shown in table 2.

[1] = Pharmacokinetic evaluation of compounds in mice; format: in vivo; details: CD-1 mouse (male), single gavage, plasma; for MRT last: read-out: MRT0-last
Experimental: Experimental purpose: testing pharmacokinetics of the compounds in mice
CD-1 mouse (male), vehicle (an aqueous solution of 0.5% (w/v) methylcellulose and 0.5% (v/v) Tween 80), and trfluoroacetate salt of compound 0027.
The animals in groups 1 and 2 are administrated […] of the compounds by single gavage, respectively, and the administration volume is 10 mL/kg.
Whole blood samples (30 μl) are collected at the prescribed time points (0.25, 0.5, 1, 2, 4, 6, 8, 24 h) by saphenous vein blood collection, and the actual blood collection time is recorded in the test record. The acceptable error of the collection time point is a time point within 1 hour of administration time ±1 minute, and the acceptable error of other time points is a theoretical time ±5%.
All blood samples are immediately transferred to labeled commercial centrifuge tubes containing K2-EDTA. After being collected, the blood samples are centrifuged at 3200 rpm/min for 10 minutes at 4° C. to aspirate the supernatant plasma, which is quickly placed in dry ice, and kept at −20° C. or a lower temperature for LC-MS/MS analysis.

T3 sequence (P22607 23-806): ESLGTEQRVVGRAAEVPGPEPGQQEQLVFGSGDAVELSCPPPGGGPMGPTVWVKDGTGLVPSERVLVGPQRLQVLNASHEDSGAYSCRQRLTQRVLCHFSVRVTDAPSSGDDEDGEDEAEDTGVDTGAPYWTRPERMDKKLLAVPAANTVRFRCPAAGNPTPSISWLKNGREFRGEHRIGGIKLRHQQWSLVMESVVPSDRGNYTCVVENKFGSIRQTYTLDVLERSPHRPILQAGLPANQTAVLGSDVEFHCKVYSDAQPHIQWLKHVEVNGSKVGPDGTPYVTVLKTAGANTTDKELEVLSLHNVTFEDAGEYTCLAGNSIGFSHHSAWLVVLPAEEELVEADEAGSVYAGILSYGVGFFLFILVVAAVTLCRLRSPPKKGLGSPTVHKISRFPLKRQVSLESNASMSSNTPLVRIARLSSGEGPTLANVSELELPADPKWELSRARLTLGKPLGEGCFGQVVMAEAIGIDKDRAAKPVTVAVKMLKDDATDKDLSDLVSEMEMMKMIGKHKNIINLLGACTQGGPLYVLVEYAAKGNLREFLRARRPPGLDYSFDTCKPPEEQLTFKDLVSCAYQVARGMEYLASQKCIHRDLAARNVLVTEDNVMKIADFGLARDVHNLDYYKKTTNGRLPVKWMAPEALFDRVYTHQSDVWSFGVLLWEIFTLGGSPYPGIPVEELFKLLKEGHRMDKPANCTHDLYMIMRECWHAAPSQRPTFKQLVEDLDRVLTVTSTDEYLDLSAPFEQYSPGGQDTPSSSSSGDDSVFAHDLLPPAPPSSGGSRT
T2 sequence (P21802 22-821): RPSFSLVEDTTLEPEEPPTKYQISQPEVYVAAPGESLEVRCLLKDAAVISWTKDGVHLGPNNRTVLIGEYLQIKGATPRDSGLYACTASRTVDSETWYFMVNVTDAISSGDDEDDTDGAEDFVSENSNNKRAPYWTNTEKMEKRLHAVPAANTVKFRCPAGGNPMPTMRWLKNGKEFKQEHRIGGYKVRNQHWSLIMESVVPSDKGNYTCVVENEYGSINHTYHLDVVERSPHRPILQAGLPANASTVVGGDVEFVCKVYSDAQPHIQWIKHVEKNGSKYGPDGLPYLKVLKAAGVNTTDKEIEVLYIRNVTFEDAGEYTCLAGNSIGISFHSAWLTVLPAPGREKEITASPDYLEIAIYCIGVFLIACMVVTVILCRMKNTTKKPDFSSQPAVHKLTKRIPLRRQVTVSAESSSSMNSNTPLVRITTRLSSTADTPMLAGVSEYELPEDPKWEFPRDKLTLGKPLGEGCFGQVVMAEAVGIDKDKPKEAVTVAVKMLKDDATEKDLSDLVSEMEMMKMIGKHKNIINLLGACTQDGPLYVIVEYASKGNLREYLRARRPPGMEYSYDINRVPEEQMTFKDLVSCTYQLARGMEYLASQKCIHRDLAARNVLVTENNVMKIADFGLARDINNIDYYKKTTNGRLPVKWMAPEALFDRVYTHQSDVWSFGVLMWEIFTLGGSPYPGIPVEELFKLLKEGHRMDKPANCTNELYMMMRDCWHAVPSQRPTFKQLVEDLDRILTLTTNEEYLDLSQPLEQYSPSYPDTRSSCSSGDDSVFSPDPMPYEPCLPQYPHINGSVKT
T1 sequence (P11362 22-822): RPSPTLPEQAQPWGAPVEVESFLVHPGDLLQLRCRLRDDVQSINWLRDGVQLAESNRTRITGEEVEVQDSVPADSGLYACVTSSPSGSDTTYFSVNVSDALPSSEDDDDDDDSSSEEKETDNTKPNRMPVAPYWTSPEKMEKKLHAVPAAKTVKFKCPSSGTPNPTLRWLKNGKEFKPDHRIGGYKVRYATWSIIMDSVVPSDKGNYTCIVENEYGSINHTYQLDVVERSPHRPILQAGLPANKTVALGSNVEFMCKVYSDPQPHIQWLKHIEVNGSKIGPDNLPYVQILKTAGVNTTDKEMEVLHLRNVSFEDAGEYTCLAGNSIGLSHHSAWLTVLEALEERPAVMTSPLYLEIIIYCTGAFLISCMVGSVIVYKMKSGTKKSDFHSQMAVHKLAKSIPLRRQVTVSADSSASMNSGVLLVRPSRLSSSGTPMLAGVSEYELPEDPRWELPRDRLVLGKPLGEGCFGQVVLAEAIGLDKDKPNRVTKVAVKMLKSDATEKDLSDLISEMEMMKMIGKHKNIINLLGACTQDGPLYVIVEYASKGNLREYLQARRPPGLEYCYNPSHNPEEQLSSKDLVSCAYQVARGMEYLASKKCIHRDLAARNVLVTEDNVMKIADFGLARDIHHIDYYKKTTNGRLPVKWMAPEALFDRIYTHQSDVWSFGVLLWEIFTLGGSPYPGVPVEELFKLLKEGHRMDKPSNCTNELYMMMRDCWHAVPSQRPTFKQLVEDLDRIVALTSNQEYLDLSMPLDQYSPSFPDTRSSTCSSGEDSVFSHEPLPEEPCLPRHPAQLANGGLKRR
T4 sequence (P22455 22-802): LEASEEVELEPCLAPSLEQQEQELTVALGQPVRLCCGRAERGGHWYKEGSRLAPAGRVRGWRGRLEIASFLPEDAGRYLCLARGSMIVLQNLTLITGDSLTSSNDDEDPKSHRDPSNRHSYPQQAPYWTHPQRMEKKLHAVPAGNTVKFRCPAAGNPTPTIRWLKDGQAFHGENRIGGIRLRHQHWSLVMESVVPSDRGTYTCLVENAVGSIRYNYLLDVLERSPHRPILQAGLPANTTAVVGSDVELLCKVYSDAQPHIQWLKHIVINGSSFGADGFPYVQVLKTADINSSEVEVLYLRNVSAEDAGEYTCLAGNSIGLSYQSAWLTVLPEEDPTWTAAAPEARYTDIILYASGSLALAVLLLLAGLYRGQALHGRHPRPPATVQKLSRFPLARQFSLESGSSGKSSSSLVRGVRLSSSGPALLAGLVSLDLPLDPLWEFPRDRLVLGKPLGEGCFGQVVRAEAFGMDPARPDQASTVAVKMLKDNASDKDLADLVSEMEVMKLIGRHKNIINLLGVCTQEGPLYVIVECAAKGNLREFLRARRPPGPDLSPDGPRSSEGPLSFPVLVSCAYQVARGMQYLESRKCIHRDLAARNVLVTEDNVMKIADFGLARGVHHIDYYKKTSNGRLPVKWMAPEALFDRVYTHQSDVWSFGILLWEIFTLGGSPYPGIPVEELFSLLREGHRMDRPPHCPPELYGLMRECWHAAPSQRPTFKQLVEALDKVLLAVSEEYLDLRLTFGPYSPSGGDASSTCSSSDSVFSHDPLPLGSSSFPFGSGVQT

Question: For COc1cc(OC)c(Cl)c(-c2nc(-c3nc(-c4cn(C)nc4C)cnc3N)cn(C)c2=O)c1 [Trifluoroacetate salt of 0027], which IC50 (human FGFR1) is on record?
Answer: 2.12 nM

Question: And the “Selectivity FGFR1/2” value (FGFR2; ratio of IC50 FGFR1 to IC50 FGFR2)?
Answer: 4.02

Question: What about the IC50 (FGFR2; wild-type kinase, 33P-ATP 5 μM, substrate pEY + Mn, 120 minutes at room temperature) of the same compound?
Answer: 0.53 nM

Question: And the “Selectivity FGFR1/3” value (FGFR3; ratio of IC50 FGFR1 to IC50 FGFR3)?
Answer: 3.06

Question: What about the IC50 (FGFR3; wild-type kinase, 33P-ATP 30 μM, substrate pEY + Mn, 120 minutes at room temperature) of the same compound?
Answer: 0.69 nM

Question: What about the IC50 (human FGFR4) of the same compound?
Answer: 106 nM

Question: And the Tlast ([1]; 300 mpk)?
Answer: 24.0 h

Question: What about the AUC(0-inf) ([1]; po, 50 mg/kg, 50 mpk) of the same compound?
Answer: 95.8 µM·h

Question: What about the AUC(0-t) ([1]; po, 50 mg/kg, 50 mpk) of the same compound?
Answer: 85.8 µM·h

Question: And the Cmax ([1]; po, 50 mg/kg, 50 mpk)?
Answer: 14.8 µM

Question: And the Tmax ([1]; po, 50 mg/kg, 50 mpk)?
Answer: 1 h

Question: What about the half-life ([1]; po, 50 mg/kg, 50 mpk) of the same compound?
Answer: 2.46 h

Question: And the MRT inf ([1]; po, 50 mg/kg, 50 mpk, read-out: MRT0-inf)?
Answer: 5.39 h

Question: What about the MRT last ([1]; po, 50 mg/kg, 50 mpk) of the same compound?
Answer: 4.33 h

Question: And the AUC(0-t) ([1]; po, 300 mg/kg, 300 mpk)?
Answer: 699 µM·h

Question: What about the Cmax ([1]; po, 300 mg/kg, 300 mpk) of the same compound?
Answer: 42.1 µM

Question: What about the Tmax ([1]; po, 300 mg/kg, 300 mpk) of the same compound?
Answer: 7 h

Question: And the MRT last ([1]; po, 300 mg/kg, 300 mpk)?
Answer: 11.1 h
